Test results as given in article PMC10477861, “Efficient Mining of Anticancer Peptides from Gut Metagenome” (Advanced Science, 2023).
Where no end group is shown, it is not given here.

System: EFM192A
Test: MTT primary screening of anticancer activity, EFM192A
Format: cell-based
Details: 25 µM pACP, 24 h, maintenance medium 1% FBS, ratio of viability to vehicle (PBS), at least three technical repetitions
Summary of the method: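 MTT read-out of cell survival after a 24 h peptide exposure at 25 µM final c[…]ntration. Medium was switched to 1% FBS maintenance medium at treatment, with cultures at 60% confluence.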

RRFAWIGKLQSRKVRNNIRQYRTKIVRQMRRQIFRQMKQKAE [pACP1780]
Survival rate of cancer cells in primary screening: 0.01

WWRRAERSVRRFFGTPIGPFPEIFGRRKAHKKKIIAKFDSVNG [pACP2283]
Survival rate of cancer cells in primary screening: 0.15
